Consider 13 compounds from patent publication US11267824B2, “Inhibitors of indoleamine 2,3-dioxygenase and/or tryptophan 2,3-dioxygenase” (IDORSIA PHARMACEUTICALS LTD, priority 2017, dated 2022).

The target of assay [1] is Recombinant full-length human IDO1 (Homo sapiens (Human), UniProt P14902). Nature of the assay: IDO1 enzymatic assay (IDO inhibitory activity). Format: biochemical. Particulars: 2 nM enzyme, 5 μM L-tryptophan, pH6.5, 30 min pre-incubation, NFK quantified by LCMS; mean values if measured multiple times; read-out: hIDO activity (IC50 in nM). A digest of the protocol: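 N-His-tagged enzyme from E. coli at 2 nM in 37.5 mM phosphate pH6.5 with ascorbate, methylene blue, catalase; compounds 10 μM–0.5 nM, 0.6% DMSO, pre-incubated 30 min RT, then 5 μM L-tryptophan for 30 min RT. NFK quantified by LCMS against d5-tryptophan; IC50 from duplicate four-parameter fit, means where repeated.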

Assay [2] addresses Recombinant human TDO comprising amino acids 19-407 (Homo sapiens (Human), UniProt P48775). Nature of the assay: TDO2 enzymatic assay (TDO inhibitory activity). Format: biochemical. To be noted: 15 nM enzyme, 200 μM L-tryptophan, pH7, 30 min pre-incubation, NFK quantified by LCMS; mean values if measured multiple times; read-out: hTDO activity (IC50 in nM). A digest of the protocol:
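His-tagged enzyme (15 nM, E. coli-expressed) in pH 7 phosphate buffer with ascorbate, catalase, BSA, Tween 20, 0.6% DMSO; 30 min RT pre-incubation with compound (10 μM–0.5 nM), then 200 μM L-tryptophan for 30 min RT. N′-formylkynurenine quantified by LCMS against deuterated tryptophan; IC50 by four-parameter fit, duplicates.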

Molecules are shown by their SMILES.

Recombinant human TDO comprising amino acids 19-407, sequence (P48775 19-406 limits assumed): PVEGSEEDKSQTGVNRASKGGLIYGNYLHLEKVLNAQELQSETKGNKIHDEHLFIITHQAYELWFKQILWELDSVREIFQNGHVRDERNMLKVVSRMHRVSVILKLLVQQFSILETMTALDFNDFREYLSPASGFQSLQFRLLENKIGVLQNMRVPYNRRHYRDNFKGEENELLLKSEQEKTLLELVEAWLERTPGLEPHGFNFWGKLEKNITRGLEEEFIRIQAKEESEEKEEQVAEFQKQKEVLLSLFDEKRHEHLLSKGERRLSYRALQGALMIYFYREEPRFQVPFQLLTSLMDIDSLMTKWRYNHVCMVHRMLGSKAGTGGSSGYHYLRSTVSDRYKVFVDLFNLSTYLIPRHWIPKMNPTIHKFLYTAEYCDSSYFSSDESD
Recombinant full-length human IDO1, sequence (P14902 whole entry): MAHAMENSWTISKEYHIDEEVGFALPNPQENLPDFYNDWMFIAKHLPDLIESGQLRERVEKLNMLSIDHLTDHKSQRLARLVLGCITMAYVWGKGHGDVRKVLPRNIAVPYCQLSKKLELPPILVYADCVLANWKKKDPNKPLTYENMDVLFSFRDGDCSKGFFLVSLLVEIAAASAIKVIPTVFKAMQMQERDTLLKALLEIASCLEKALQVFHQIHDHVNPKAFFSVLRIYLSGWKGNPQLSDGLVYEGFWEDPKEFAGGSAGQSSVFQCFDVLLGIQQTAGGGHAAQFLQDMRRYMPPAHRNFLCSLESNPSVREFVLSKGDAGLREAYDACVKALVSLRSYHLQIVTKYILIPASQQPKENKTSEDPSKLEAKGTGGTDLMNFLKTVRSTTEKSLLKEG

The term IC50 denotes the concentration at which inhibition is half-maximal. Consider `OC(c1c(Cc2ccccc2)sc2cncn12)C1CCCCC1` (racemic) [Example 154, rac-(2-Benzyl-imidazo[5,1-b]thiazol-3-yl)-cyclohexyl-methanol], for which the half-maximal inhibitory concentration (IC50) in assay [1] turned out to be 7110 nM; in assay [2], 4270 nM.

Turning to `OC(CC1CCCC1)c1c(C2CC2)sc2cncn12` (racemic) [Example 24, rac-2-Cyclopentyl-1-(2-cyclopropyl-imidazo[5,1-b]thiazol-3-yl)-ethanol], the IC50 in assay [1] stood at 25.6 nM; in assay [2], 394 nM.

With `CC1(C)CCC(C(O)c2c(C3CC3)sc3cncn23)CC1` (racemic) [Example 26, rac-(2-Cyclopropyl-imidazo[5,1-b]thiazol-3-yl)-(4,4-dimethyl-cyclohexyl)-methanol], the figures for the IC50 in assay [1] and in assay [2] were 25.2 nM and 387 nM, respectively.

Regarding `CCNC1CCC(CC(O)c2c(C3CC3)sc3cncn23)CC1` (racemic) [Example 160, rac-1-(2-Cyclopropyl-imidazo[5,1-b]thiazol-3-yl)-2-(4-ethylamino-cyclohexyl)-ethanol], the figures for the IC50 in assay [1] and in assay [2] were 2370 nM and above 10200 nM, respectively.

With `OC(c1c(C2CC2)sc2cncn12)C12CCC(c3ccccc3)(C1)C2` (racemic) [Example 190, rac-(2-Cyclopropyl-imidazo[5,1-b]thiazol-3-yl)-(4-phenyl-bicyclo[2.1.1]hex-1-yl)-methanol], the figures for the IC50 in assay [1] and in assay [2] were 61.2 nM and 891 nM, respectively.

For `CC(C)c1sc2cncn2c1[C@@H](O)CC1CCCCC1` [Example 4a, (S)-2-Cyclohexyl-1-(2-isopropyl-imidazo[5,1-b]thiazol-3-yl)-ethanol], the IC50 stood at 15.5 nM in assay [1] and 386 nM in assay [2].

With `OC(c1c(C(F)(F)F)sc2cncn12)C1CCCCC1` (racemic) [Example 63, rac-Cyclohexyl-(2-trifluoromethyl-imidazo[5,1-b]thiazol-3-yl)-methanol], the results for the IC50 in assay [1] and in assay [2] were 27 nM and 564 nM, respectively.

Take `CC1(CC(O)c2c(C3CC3)sc3cncn23)CCCCC1` (racemic) [Example 23, rac-1-(2-Cyclopropyl-imidazo[5,1-b]thiazol-3-yl)-2-(1-methyl-cyclohexyl)-ethanol]: the IC50 in assay [1] was found to be 40.5 nM; in assay [2], 204 nM.

As for `Cc1sc2cncn2c1C(O)c1ccccc1` (racemic) [Example 162, rac-(2-Methyl-imidazo[5,1-b]thiazol-3-yl)-phenyl-methanol], the figures for the IC50 in assay [1] and in assay [2] were 561 nM and 1000 nM, respectively.

As to `OC(Cc1ccccc1)c1c(C2CC2)sc2cncn12` (racemic) [Example 59, rac-1-(2-Cyclopropyl-imidazo[5,1-b]thiazol-3-yl)-2-phenyl-ethanol], the IC50 is 249 nM in assay [1] and 881 nM in assay [2].

For `CCc1sc2cncn2c1[C@H](O)CC1CCCCC1` [Example 100b, (R)-2-Cyclohexyl-1-(2-ethyl-imidazo[5,1-b]thiazol-3-yl)-ethanol], the IC50 in assay [1] was determined as 1190 nM; in assay [2] it was 9950 nM.

Take `OC(CC1CCC(c2ccccc2)C1)c1c(C(F)(F)F)sc2cncn12` (centres unmarked) [Example 112, 2-(3-Phenyl-cyclopentyl)-1-(2-trifluoromethyl-imidazo[5,1-b]thiazol-3-yl)-ethanol]: the IC50 in assay [1] is 666 nM; in assay [2], above 10200 nM.

For `CC1(C(O)c2c(C3CC3)sc3cncn23)CCCCCC1` (racemic) [Example 166, rac-(2-Cyclopropyl-imidazo[5,1-b]thiazol-3-yl)-(1-methyl-cycloheptyl)-methanol], the IC50 in assay [1] was found to be 32.1 nM; in assay [2] it was 310 nM.
